Experimental data taken from patent US20260146045A1, “COMPOSITIONS AND USES THEREOF” (Solve Therapeutics, Inc., priority 2022, published 2026).

test system: SKBR3, a breast cancer cell line; experiment: in vitro cytotoxicity assay (CellTiter-Glo viability); type: cell-based; conditions: Homo sapiens, SK-BR-3, SKBR3 cells, 72 hours at 37° C., luminometer
Protocol: The ability of compounds to inhibit cell growth was measured using in vitro cytotoxicity assay.
Cells were cultured in log phase growth and split into 96-well plates. Each cell-line was plated at a slightly different concentration but ranged from 5×10^3 to 50x 10+ cells/well. Cells, in duplicate, were incubated with 3-fold serial dilution of a particular immunoconjugate starting at 3000 or 1000 nanomolar (3000, 1000, 333, 111, 37, 12.3, 4.1, 1.37, 0.46, 0.15 nanomolar) for 72 hours at 37° C. and 5% CO2. After treatment the cells were incubated with an equal volume of CellTiter-Glo® reagent (Promega Inc.) for 15 minutes at room temperature, and viability was determined by a luminometer.

Compared with `CC[C@@]1(O)C(=O)OCc2c1cc1n(c2=O)Cc2c-1nc1cc(F)ccc1c2CNC(=O)CN` [Compound 7], `CC[C@@]1(O)C(=O)OCc2c1cc1n(c2=O)Cc2c-1nc1cc(F)ccc1c2CNC(=O)CO` [Compound 8] is 16-fold lower in EC50: 89 nM for the first, 5.6 nM for the second. The second is the more potent here.

Going from `CC[C@@]1(O)C(=O)OCc2c1cc1n(c2=O)Cc2c-1nc1ccc(O)cc1c2CNC(=O)CN` [Compound 13] to `CC[C@@]1(O)C(=O)OCc2c1cc1n(c2=O)Cc2c-1nc1ccc(O)cc1c2CNC(=O)CO` [Compound 14], the EC50 falls from 1050 nM to 516 nM (2-fold). The second is the more potent here.
